# Experimental data: the supplement of paper PMC10307832
# Assays:
# Assay in all cases: relative viability (nuclei count vs DMSO), 5 days (fraction); higher = more cells survive
# [1] = compound: Cc1ccc(NC(=O)c2ccc(CN3CCN(C)CC3)cc2)cc1Nc1nc(-c2cccnc2)cs1 [Masitinib] + Cc1nc(Nc2ncc(C(=O)Nc3c(C)cccc3Cl)s2)cc(N2CCN(CCO)CC2)n1 [Dasatinib] (partner 0.075 µM)
# How it was run: (§1)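 Five library-drug doses in √10 steps were combined with a fixed anchor-drug dose, or a single drug was given alone, by pin tool to lung cancer cell lines in 1536-well plates the day after seeding. Nuclei were stained and counted after 5 days. Relative viability is the nuclei count in treated wells over that in vehicle wells, taken as the median of duplicate plates.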
# [2] = compound: CC1=CC(=CC=C1)NC2=NC(=CS2)C3=CC=NC=C3 + C[C@@H](Oc1cc(-c2cnn(C3CCNCC3)c2)cnc1N)c1c(Cl)ccc(F)c1Cl [Crizotinib] (partner 1 µM)
# How it was run: as §1
# [3] = compound: Cc1ccc(NC(=O)c2ccc(CN3CCN(C)CC3)cc2)cc1Nc1nc(-c2cccnc2)cs1 [Masitinib] + CCNC(=O)c1noc(-c2cc(C(C)C)c(O)cc2O)c1-c1ccc(CN2CCOCC2)cc1 [Luminespib] (partner 0.01 µM)
# How it was run: as §1
# [4] = compound: Cc1ccc(NC(=O)c2ccc(CN3CCN(C)CC3)cc2)cc1Nc1nc(-c2cccnc2)cs1 [Masitinib] + CC1(C)CCC(c2ccc(Cl)cc2)=C(CN2CCN(c3ccc(C(=O)NS(=O)(=O)c4ccc(N[C@H](CCN5CCOCC5)CSc5ccccc5)c(S(=O)(=O)C(F)(F)F)c4)cc3)CC2)C1 [Navitoclax] (partner 0.5 µM)
# How it was run: as §1
Cell Line,relative viability ([1]; first compound 0.01 µM),relative viability ([1]; first compound 0.03162 µM),relative viability ([1]; first compound 0.1 µM),relative viability ([1]; first compound 0.3162 µM),relative viability ([1]; first compound 1 µM),relative viability ([2]; first compound 0.08 µM),relative viability ([2]; first compound 0.253 µM),relative viability ([2]; first compound 0.8 µM),relative viability ([2]; first compound 2.53 µM),relative viability ([2]; first compound 8 µM),relative viability ([3]; first compound 0.01 µM),relative viability ([3]; first compound 0.03162 µM),relative viability ([3]; first compound 0.1 µM),relative viability ([3]; first compound 0.3162 µM),relative viability ([3]; first compound 1 µM),relative viability ([4]; first compound 0.01 µM),relative viability ([4]; first compound 0.03162 µM),relative viability ([4]; first compound 0.1 µM),relative viability ([4]; first compound 0.3162 µM),relative viability ([4]; first compound 1 µM)
201T,0.53,0.594,0.521,0.42,0.491,1.01,0.993,0.955,1.06,0.869,0.821,1.13,0.944,1.07,0.993,0.954,1.2,1.08,1.21,1.19
A549,–,–,–,–,–,0.75,0.73,0.776,0.735,0.627,–,–,–,–,–,1.18,1.19,1.41,1.19,1.23
A-427,–,0.726,–,0.802,0.695,0.851,0.944,0.751,–,0.692,–,1.1,1.13,0.814,1.18,–,0.99,–,0.927,0.933
ABC-1,0.58,0.588,0.629,0.428,0.521,0.851,0.893,1.03,0.934,1.19,0.397,0.692,0.743,0.484,0.429,–,–,–,–,–
BEN,0.341,–,0.271,0.308,0.281,1.11,0.948,0.879,0.779,0.76,0.436,–,0.631,0.378,0.37,0.066,0.0657,0.066,0.0612,0.194
CAL-12T,0.452,0.381,0.34,0.306,0.374,0.547,0.634,0.612,0.62,0.604,0.513,0.403,0.363,0.469,0.306,1.52,1.32,1.26,1.17,1.25
COR-L23,0.411,0.419,0.531,0.437,0.543,0.553,0.483,0.487,0.646,0.583,0.598,0.598,0.798,0.931,0.579,1.13,0.892,1.19,1.29,1.14
COR-L 105,0.37,0.338,0.305,0.288,0.286,0.626,0.604,0.634,0.701,0.468,0.758,0.677,0.776,0.686,0.66,0.747,0.688,0.781,0.926,0.774
Calu-6,–,–,–,–,–,0.698,0.639,0.619,0.634,0.727,–,–,–,–,–,0.836,0.872,0.89,0.821,0.904
ChaGo-K-1,0.577,0.575,0.54,0.546,0.629,1.08,1.07,1.14,1.07,1.15,0.681,0.48,0.635,0.524,0.569,1.36,0.979,1.31,1.1,0.839
EBC-1,–,–,–,–,–,0.176,0.218,0.198,0.17,0.163,–,–,–,–,–,0.363,0.397,0.41,0.385,0.494
EKVX,0.557,0.387,0.535,0.464,0.41,0.907,0.893,0.795,0.801,0.497,–,0.997,0.599,0.93,0.786,–,0.688,0.865,0.577,0.968
EMC-BAC-2,0.35,0.33,0.397,0.314,0.296,0.642,0.7,0.717,0.643,0.729,1.01,1.06,1.15,1.13,1.16,1.08,0.962,1.16,1.37,1.45
EPLC-272H,0.509,0.416,0.337,0.373,0.242,0.854,–,0.877,–,0.885,0.27,0.237,0.262,0.195,0.232,1.08,1.13,1.08,1.23,1.06
H3255,0.335,0.363,0.336,0.349,0.339,0.721,0.926,0.821,0.795,0.853,0.586,0.772,0.611,1.02,0.838,0.441,0.409,0.496,0.351,0.409
HARA,–,0.289,0.283,0.152,0.258,0.804,1,0.994,0.998,0.986,–,0.609,0.44,0.682,0.731,1.16,1.06,1.2,1.2,1.19
HCC-15,0.516,0.617,0.68,0.512,0.59,0.826,0.807,0.777,0.833,0.79,0.306,0.389,0.37,0.476,0.141,0.667,0.606,0.819,0.647,0.725
HCC-44,–,–,–,–,–,0.704,0.585,0.651,0.722,0.691,1.04,1.17,1.08,1.03,1.09,0.84,0.84,0.952,0.806,0.977
